Read-outs that look alike come from different tables or passages of the source. Blank lines part the entries; values can stand above or below the compound they belong to.
What was measured:
MMP-2 = target: T1, MMP-2 (Homo sapiens, UniProt P08253); assay: MMP-2 inhibition assay (fluorogenic peptide substrate); type: biochemical; conditions: for IC50: mean ± SE, n.d: not detected, Fig. 5d unit inferred, µM, read-out: IC50
T1 construct: purchased Sino Biological 10082-HNAH
T1 sequence (P08253 110-660): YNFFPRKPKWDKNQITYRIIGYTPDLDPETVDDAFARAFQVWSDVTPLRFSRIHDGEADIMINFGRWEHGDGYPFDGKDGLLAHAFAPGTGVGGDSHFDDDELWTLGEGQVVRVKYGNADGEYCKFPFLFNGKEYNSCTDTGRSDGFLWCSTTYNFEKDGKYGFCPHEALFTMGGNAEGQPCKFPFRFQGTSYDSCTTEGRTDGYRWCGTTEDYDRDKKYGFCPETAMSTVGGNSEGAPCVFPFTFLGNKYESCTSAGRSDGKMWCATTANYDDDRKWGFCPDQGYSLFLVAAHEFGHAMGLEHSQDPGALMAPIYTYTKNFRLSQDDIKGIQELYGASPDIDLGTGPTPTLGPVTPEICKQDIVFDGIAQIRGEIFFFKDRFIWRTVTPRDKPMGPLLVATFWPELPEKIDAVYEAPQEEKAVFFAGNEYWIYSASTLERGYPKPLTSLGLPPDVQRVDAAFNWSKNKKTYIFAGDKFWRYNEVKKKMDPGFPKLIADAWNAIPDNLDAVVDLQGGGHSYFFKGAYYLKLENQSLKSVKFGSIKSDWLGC
In short: (§1)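 Hydrolysis of DNP-Pro-Leu-Gly-Met-Trp-Ser-Arg (25 μM final) was tracked kinetically at em 360 nm over 30 min. Enzymes, APMA-activated and at 10 nM (MMP-9) or 6.5 nM (MMP-2) final, sat 30 min at RT with inhibitor in pH 7.5 Tris buffer with CaCl2 and Brij 35 first. Logistic fitting of Vmax against concentration gave IC50, in triplicate.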

MMP-9 = target: T2, MMP-9 (Homo sapiens, UniProt P14780); assay: MMP-9 inhibition assay (fluorogenic peptide substrate); type: biochemical; conditions: for IC50: mean ± SE, n.d: not detected, Fig. 5e prints no unit, µM, read-out: IC50
T2 construct: purchased Sino Biological 10327-HNAH
T2 sequence (P14780 107-707 limits assumed): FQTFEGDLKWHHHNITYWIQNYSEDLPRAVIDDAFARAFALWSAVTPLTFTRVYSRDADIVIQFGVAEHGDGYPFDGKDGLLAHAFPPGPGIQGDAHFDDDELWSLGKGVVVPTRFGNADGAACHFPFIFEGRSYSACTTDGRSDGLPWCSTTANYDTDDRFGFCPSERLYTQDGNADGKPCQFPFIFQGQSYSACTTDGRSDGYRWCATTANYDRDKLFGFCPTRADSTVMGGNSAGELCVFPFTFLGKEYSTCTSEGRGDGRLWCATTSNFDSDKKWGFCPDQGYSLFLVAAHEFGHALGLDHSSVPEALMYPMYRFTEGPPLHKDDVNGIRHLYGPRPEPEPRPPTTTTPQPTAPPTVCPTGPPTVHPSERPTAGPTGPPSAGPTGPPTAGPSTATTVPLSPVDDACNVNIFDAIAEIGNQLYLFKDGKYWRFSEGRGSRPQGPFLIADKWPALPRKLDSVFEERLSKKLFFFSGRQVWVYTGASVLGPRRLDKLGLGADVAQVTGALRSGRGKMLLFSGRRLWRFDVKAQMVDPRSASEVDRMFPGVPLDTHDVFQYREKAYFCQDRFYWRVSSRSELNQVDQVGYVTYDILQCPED
In short: as §1

remaining activity at 0.0152381 µM (MMP-2; Figure 5a, fragment concentration 0.0152381 µM, read-out: Normalized activity (Mean)): 97.3%
remaining activity at 0.0761905 µM (MMP-2; Figure 5a, fragment concentration 0.0761905 µM, read-out: Normalized activity (Mean)): 97.1%
remaining activity at 0.380952 µM (MMP-2; Figure 5a, fragment concentration 0.380952 µM, read-out: Normalized activity (Mean)): 98.7%
remaining activity at 1.90476 µM (MMP-2; Figure 5a, fragment concentration 1.90476 µM, read-out: Normalized activity (Mean)): 98.1%
remaining activity at 9.52381 µM (MMP-2; Figure 5a, fragment concentration 9.52381 µM, read-out: Normalized activity (Mean)): 87.4%
remaining activity at 47.619 µM (MMP-2; Figure 5a, fragment concentration 47.619 µM, read-out: Normalized activity (Mean)): 71.6%
remaining activity at 238.095 µM (MMP-2; Figure 5a, fragment concentration 238.095 µM, read-out: Normalized activity (Mean)): 16.9%
remaining activity at 1190.48 µM (MMP-2; Figure 5a, fragment concentration 1190.48 µM, read-out: Normalized activity (Mean)): 0%
remaining activity at 0.0152 µM (MMP-2; MMP-2, concentration 0.0152 µM, read-out: Mean (MMP-2, Supplementary fig 16)): 97.3%
remaining activity at 0.08 µM (MMP-2; MMP-2, concentration 0.08 µM, read-out: Mean (MMP-2, Supplementary fig 16)): 97.1%
remaining activity at 1.9 µM (MMP-2; MMP-2, concentration 1.90 µM, read-out: Mean (MMP-2, Supplementary fig 16)): 98.2%
remaining activity at 9.52 µM (MMP-2; MMP-2, concentration 9.52 µM, read-out: Mean (MMP-2, Supplementary fig 16)): 87.4%
remaining activity at 47.62 µM (MMP-2; MMP-2, concentration 47.62 µM, read-out: Mean (MMP-2, Supplementary fig 16)): 71.6%
remaining activity at 238.1 µM (MMP-2; MMP-2, concentration 238.10 µM, read-out: Mean (MMP-2, Supplementary fig 16)): 16.9%
remaining activity at 0.38 µM (MMP-2; MMP-2, concentration 0.38 µM, read-out: Mean (MMP-2, Supplementary fig 16)): 98.7%
IC50 (MMP-2): 95.8 µM
remaining activity at 0.062464 µM (MMP-9; Figure 5b, fragment concentration 0.062464 µM, read-out: Normalized activity (Mean)): 93.2%
remaining activity at 0.31232 µM (MMP-9; Figure 5b, fragment concentration 0.31232 µM, read-out: Normalized activity (Mean)): 98.5%
remaining activity at 1.5616 µM (MMP-9; Figure 5b, fragment concentration 1.5616 µM, read-out: Normalized activity (Mean)): 93.8%
remaining activity at 7.808 µM (MMP-9; Figure 5b, fragment concentration 7.808 µM, read-out: Normalized activity (Mean)): 101%
remaining activity at 39.04 µM (MMP-9; Figure 5b, fragment concentration 39.04 µM, read-out: Normalized activity (Mean)): 52.9%
remaining activity at 195.2 µM (MMP-9; Figure 5b, fragment concentration 195.2 µM, read-out: Normalized activity (Mean)): 20%
remaining activity at 976 µM (MMP-9; Figure 5b, fragment concentration 976 µM, read-out: Normalized activity (Mean)): 0%
remaining activity at 0.06 µM (MMP-9; MMP-9, concentration 0.06 µM, read-out: Mean (MMP-9, Supplementary fig 16)): 93.2%
remaining activity at 0.31 µM (MMP-9; MMP-9, concentration 0.31 µM, read-out: Mean (MMP-9, Supplementary fig 16)): 98.5%
remaining activity at 1.56 µM (MMP-9; MMP-9, concentration 1.56 µM, read-out: Mean (MMP-9, Supplementary fig 16)): 93.8%
remaining activity at 7.81 µM (MMP-9; MMP-9, concentration 7.81 µM, read-out: Mean (MMP-9, Supplementary fig 16)): 101%
remaining activity at 39.04 µM (MMP-9; MMP-9, concentration 39.04 µM, read-out: Mean (MMP-9, Supplementary fig 16)): 52.9%
remaining activity at 195.2 µM (MMP-9; MMP-9, concentration 195.20 µM, read-out: Mean (MMP-9, Supplementary fig 16)): 21%
remaining activity at 976 µM (MMP-9; MMP-9, concentration 976.00 µM, read-out: Mean (MMP-9, Supplementary fig 16)): 0%
IC50 (MMP-9): 48.1 µM
Compound: O=C(O)Cn1cnc2c(oc3ccccc32)c1=O [Compound 182]

remaining activity at 0.0156098 µM (MMP-2; Figure 5a, fragment concentration 0.0156098 µM, read-out: Normalized activity (Mean)): 93%
remaining activity at 0.0780488 µM (MMP-2; Figure 5a, fragment concentration 0.0780488 µM, read-out: Normalized activity (Mean)): 96.4%
remaining activity at 0.390244 µM (MMP-2; Figure 5a, fragment concentration 0.390244 µM, read-out: Normalized activity (Mean)): 90.7%
remaining activity at 1.95122 µM (MMP-2; Figure 5a, fragment concentration 1.95122 µM, read-out: Normalized activity (Mean)): 92.4%
remaining activity at 9.7561 µM (MMP-2; Figure 5a, fragment concentration 9.7561 µM, read-out: Normalized activity (Mean)): 83.6%
remaining activity at 48.7805 µM (MMP-2; Figure 5a, fragment concentration 48.7805 µM, read-out: Normalized activity (Mean)): 70.5%
remaining activity at 243.902 µM (MMP-2; Figure 5a, fragment concentration 243.902 µM, read-out: Normalized activity (Mean)): 41.9%
remaining activity at 1219.51 µM (MMP-2; Figure 5a, fragment concentration 1219.51 µM, read-out: Normalized activity (Mean)): 5.76%
remaining activity at 0.0156 µM (MMP-2; MMP-2, concentration 0.0156 µM, read-out: Mean (MMP-2 dose-response, Supplementary fig 15)): 93%
remaining activity at 0.08 µM (MMP-2; MMP-2, concentration 0.08 µM, read-out: Mean (MMP-2 dose-response, Supplementary fig 15)): 96.3%
remaining activity at 0.39 µM (MMP-2; MMP-2, concentration 0.39 µM, read-out: Mean (MMP-2 dose-response, Supplementary fig 15)): 90.7%
remaining activity at 1.95 µM (MMP-2; MMP-2, concentration 1.95 µM, read-out: Mean (MMP-2 dose-response, Supplementary fig 15)): 92.4%
remaining activity at 9.75 µM (MMP-2; MMP-2, concentration 9.75 µM, read-out: Mean (MMP-2 dose-response, Supplementary fig 15)): 83.6%
remaining activity at 9.76 µM (MMP-2; MMP-2, concentration 9.76 µM, read-out: Mean (MMP-2 dose-response, Supplementary fig 15)): 83.6%
remaining activity at 48.76 µM (MMP-2; MMP-2, concentration 48.76 µM, read-out: Mean (MMP-2 dose-response, Supplementary fig 15)): 70.5%
remaining activity at 48.78 µM (MMP-2; MMP-2, concentration 48.78 µM, read-out: Mean (MMP-2 dose-response, Supplementary fig 15)): 70.5%
remaining activity at 243.8 µM (MMP-2; MMP-2, concentration 243.80 µM, read-out: Mean (MMP-2 dose-response, Supplementary fig 15)): 41.9%
remaining activity at 243.9 µM (MMP-2; MMP-2, concentration 243.90 µM, read-out: Mean (MMP-2 dose-response, Supplementary fig 15)): 41.9%
remaining activity at 1219.51 µM (MMP-2; MMP-2, concentration 1219.51 µM, read-out: Mean (MMP-2 dose-response, Supplementary fig 15)): 5.76%
inhibitory effect (MMP-2; in words): high µM range
IC50 (MMP-2): 169 ± 15.8 µM
remaining activity at 0.078016 µM (MMP-9; Figure 5b, fragment concentration 0.078016 µM, read-out: Normalized activity (Mean)): 99.9%
remaining activity at 0.39008 µM (MMP-9; Figure 5b, fragment concentration 0.39008 µM, read-out: Normalized activity (Mean)): 97%
remaining activity at 1.9504 µM (MMP-9; Figure 5b, fragment concentration 1.9504 µM, read-out: Normalized activity (Mean)): 89.6%
remaining activity at 9.752 µM (MMP-9; Figure 5b, fragment concentration 9.752 µM, read-out: Normalized activity (Mean)): 87.1%
remaining activity at 48.76 µM (MMP-9; Figure 5b, fragment concentration 48.76 µM, read-out: Normalized activity (Mean)): 91%
remaining activity at 243.8 µM (MMP-9; Figure 5b, fragment concentration 243.8 µM, read-out: Normalized activity (Mean)): 37.1%
remaining activity at 1219 µM (MMP-9; Figure 5b, fragment concentration 1219 µM, read-out: Normalized activity (Mean)): 6.67%
remaining activity at 0.08 µM (MMP-9; MMP-9, concentration 0.08 µM, read-out: Mean (MMP-9 dose-response, Supplementary fig 15)): 99.9%
remaining activity at 0.39 µM (MMP-9; MMP-9, concentration 0.39 µM, read-out: Mean (MMP-9 dose-response, Supplementary fig 15)): 97%
remaining activity at 1.95 µM (MMP-9; MMP-9, concentration 1.95 µM, read-out: Mean (MMP-9 dose-response, Supplementary fig 15)): 89.5%
remaining activity at 9.75 µM (MMP-9; MMP-9, concentration 9.75 µM, read-out: Mean (MMP-9 dose-response, Supplementary fig 15)): 87.1%
remaining activity at 48.76 µM (MMP-9; MMP-9, concentration 48.76 µM, read-out: Mean (MMP-9 dose-response, Supplementary fig 15)): 91%
remaining activity at 243.8 µM (MMP-9; MMP-9, concentration 243.80 µM, read-out: Mean (MMP-9 dose-response, Supplementary fig 15)): 37.1%
remaining activity at 1219 µM (MMP-9; MMP-9, concentration 1219.00 µM, read-out: Mean (MMP-9 dose-response, Supplementary fig 15)): 6.67%
inhibitory effect (MMP-9; in words): high µM range
IC50 (MMP-9): 206 ± 25.4 µM
Compound: Cc1cc(=O)[nH]c(-n2nc(C)c(CCC(=O)O)c2C)n1 [Compound 693]
